The record followed here is ChEMBL document CHEMBL6109063, “Discovery of dual PARP/NAMPT inhibitors for the treatment of BRCA wild-type triple-negative breast cancer” (Bioorg Med Chem Lett, 2025).

Test [1] has as its system MDA-MB-231. Briefly: Downregulation of Rad51 level in human MDA-MB-231 cells at 5 to 10 uM by Western blot analysis. Type of test: functional, cell-based. As to conditions: dose 5-10 µM. (In western blotting, separated proteins are transferred to a membrane and probed.)
The subject of test [2] is MDA-MB-231. As to the kind of experiment: Downregulation of BRCA1 level in human MDA-MB-231 cells at 5 to 10 uM by Western blot analysis. Type of test: functional, cell-based. As to conditions: dose 5-10 µM.
Test [3] concerns MDA-MB-231. Briefly: Induction of apoptosis in human MDA-MB-231 cells harboring wild-type BRCA assessed as viable cells at 10 uM incubated for 48 hrs by Annexin V-FITC/PI staining based flow cytometry analysis (reference value: 94.3%). Type of test: functional. As to conditions: read-out: Activity. (In general: Flow cytometry measures light scatter and fluorescence of single cells or particles in a stream.)

The subject of test [4] is MDA-MB-231. Briefly: Induction of apoptosis in human MDA-MB-231 cells harboring wild-type BRCA assessed as late apoptotic cells at 10 uM incubated for 48 hrs by Annexin V-FITC/PI staining based flow cytometry analysis (reference value: 2.38%). The test is classed as functional.
In test [5] the target is Poly [ADP-ribose] polymerase 1 (Homo sapiens, UniProt P09874). As to the kind of experiment: Inhibition of PARP1 (unknown origin).
Sequence of Poly [ADP-ribose] polymerase 1 (P09874 whole entry): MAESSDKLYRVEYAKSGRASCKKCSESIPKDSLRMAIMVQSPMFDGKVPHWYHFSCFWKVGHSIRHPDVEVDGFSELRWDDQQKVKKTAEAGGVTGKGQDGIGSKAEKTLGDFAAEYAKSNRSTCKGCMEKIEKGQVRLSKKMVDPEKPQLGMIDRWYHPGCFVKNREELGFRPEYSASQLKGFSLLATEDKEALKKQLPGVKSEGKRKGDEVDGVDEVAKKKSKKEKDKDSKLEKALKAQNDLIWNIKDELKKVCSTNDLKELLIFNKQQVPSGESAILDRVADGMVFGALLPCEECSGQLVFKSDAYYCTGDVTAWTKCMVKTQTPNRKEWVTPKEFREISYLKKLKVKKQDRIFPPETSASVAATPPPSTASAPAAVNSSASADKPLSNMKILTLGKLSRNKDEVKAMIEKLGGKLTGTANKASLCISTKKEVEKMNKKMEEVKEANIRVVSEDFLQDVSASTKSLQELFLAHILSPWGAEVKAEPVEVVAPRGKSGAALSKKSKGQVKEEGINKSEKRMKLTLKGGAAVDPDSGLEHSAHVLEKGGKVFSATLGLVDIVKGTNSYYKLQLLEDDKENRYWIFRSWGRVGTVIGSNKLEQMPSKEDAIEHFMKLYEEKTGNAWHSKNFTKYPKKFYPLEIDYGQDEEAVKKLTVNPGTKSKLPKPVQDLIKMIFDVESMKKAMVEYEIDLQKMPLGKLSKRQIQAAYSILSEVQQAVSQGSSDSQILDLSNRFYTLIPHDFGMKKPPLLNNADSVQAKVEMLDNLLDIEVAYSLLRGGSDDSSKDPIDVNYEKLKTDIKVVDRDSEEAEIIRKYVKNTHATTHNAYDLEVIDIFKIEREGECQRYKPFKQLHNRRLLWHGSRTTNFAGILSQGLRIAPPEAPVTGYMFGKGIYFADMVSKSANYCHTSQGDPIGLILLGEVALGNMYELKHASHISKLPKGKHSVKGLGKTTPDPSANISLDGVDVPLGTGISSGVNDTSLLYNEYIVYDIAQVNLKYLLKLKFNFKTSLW
Test [6] deals with MDA-MB-231. Briefly: Induction of DNA damage in human MDA-MB-231 cells assessed as increase in gammaH2AX levels at 5 to 10 uM incubated for 48 hrs by DAPI staining based Immunofluorescence analysis. The test is classed as functional, cell-based. The conditions noted are these: dose 5-10 µM.
In test [7] the test system is MDA-MB-231. As to the kind of experiment: Induction of apoptosis in human MDA-MB-231 cells harboring wild-type BRCA incubated for 48 hrs by Annexin V-FITC/PI staining based flow cytometry analysis. As to conditions: dose 5-10 µM. Type of test: functional, cell-based.
Test [8] concerns MDA-MB-231. Briefly: cells. As to conditions: Homo sapiens.
In test [9] the test system is MDA-MB-231. As to the kind of experiment: Induction of apoptosis in human MDA-MB-231 cells harboring wild-type BRCA assessed as early apoptotic cells at 5 uM incubated for 48 hrs by Annexin V-FITC/PI staining based flow cytometry analysis (reference value: 1.60%). Type of test: functional.
The subject of test [10] is MDA-MB-231. Briefly: Antimigratory activity against human MDA-MB-231 cells at 10 uM incubated for 48 hrs by Transwell migration assay. The test is classed as functional, cell-based.
Test [11] concerns MDA-MB-231. As to the kind of experiment: Antimigratory activity against human MDA-MB-231 cells at 10 uM incubated for 48 hrs by wound healing assay. The test is classed as functional, cell-based.
The target in test [12] is Nicotinamide phosphoribosyltransferase (Homo sapiens, UniProt P43490). As to the kind of experiment: Inhibition of NAMPT (unknown origin).
Sequence of Nicotinamide phosphoribosyltransferase (P43490 whole entry): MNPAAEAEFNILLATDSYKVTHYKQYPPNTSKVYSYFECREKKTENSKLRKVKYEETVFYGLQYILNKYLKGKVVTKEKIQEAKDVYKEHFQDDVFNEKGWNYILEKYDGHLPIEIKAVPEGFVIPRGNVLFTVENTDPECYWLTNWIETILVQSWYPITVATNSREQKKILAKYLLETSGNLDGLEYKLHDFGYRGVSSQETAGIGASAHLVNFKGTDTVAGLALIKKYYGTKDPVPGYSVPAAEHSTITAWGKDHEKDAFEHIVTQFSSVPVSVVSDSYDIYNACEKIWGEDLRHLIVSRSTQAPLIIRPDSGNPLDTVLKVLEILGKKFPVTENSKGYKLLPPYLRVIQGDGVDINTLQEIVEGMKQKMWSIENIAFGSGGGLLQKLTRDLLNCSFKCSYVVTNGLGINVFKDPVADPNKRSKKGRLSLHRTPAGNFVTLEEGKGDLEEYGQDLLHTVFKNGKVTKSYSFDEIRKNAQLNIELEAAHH
The subject of test [13] is MDA-MB-231. Briefly: Induction of apoptosis in human MDA-MB-231 cells harboring wild-type BRCA assessed as late apoptotic cells at 5 uM incubated for 48 hrs by Annexin V-FITC/PI staining based flow cytometry analysis (reference value: 2.38%). Type of test: functional.
For test [14], the system named is MDA-MB-231. As to the kind of experiment: Induction of apoptosis in human MDA-MB-231 cells harboring wild-type BRCA assessed as necrotic cells at 10 uM incubated for 48 hrs by Annexin V-FITC/PI staining based flow cytometry analysis (reference value: 1.68%). The test is classed as functional.
Test [15] has as its system MDA-MB-231. Briefly: Induction of apoptosis in human MDA-MB-231 cells harboring wild-type BRCA assessed as early apoptotic cells at 10 uM incubated for 48 hrs by Annexin V-FITC/PI staining based flow cytometry analysis (reference value: 1.60%). The test is classed as functional.
The test system of test [16] is MDA-MB-231. As to the kind of experiment: Induction of apoptosis in human MDA-MB-231 cells harboring wild-type BRCA assessed as viable cells at 5 uM incubated for 48 hrs by Annexin V-FITC/PI staining based flow cytometry analysis (reference value: 94.3%). Type of test: functional. The conditions noted are these: read-out: Activity.
The test system of the next test is MDA-MB-436. As to the kind of experiment: cells. As to conditions: Homo sapiens.
Test [17] deals with MDA-MB-231. Briefly: Induction of apoptosis in human MDA-MB-231 cells harboring wild-type BRCA assessed as necrotic cells at 5 uM incubated for 48 hrs by Annexin V-FITC/PI staining based flow cytometry analysis (reference value: 1.68%). Type of test: functional.
For test [18], the system named is MDA-MB-231. Briefly: Synergistic anti-proliferative activity against human MDA-MB-231 cells harboring wild-type BRCA assessed as combination index at 10 to 40 uM in presence of olaparib. Type of test: functional. The conditions noted are these: dose 10-40 µM.
The test system of test [19] is MDA-MB-231. As to the kind of experiment: Induction of apoptosis in human MDA-MB-231 cells harboring wild-type BRCA assessed as necrotic cells at 15 uM incubated for 48 hrs in presence of Olaparib by Annexin V-FITC/PI staining based flow cytometry analysis (reference value: 1.68%). Type of test: functional.
The test system of test [20] is MDA-MB-231. Briefly: Induction of apoptosis in human MDA-MB-231 cells harboring wild-type BRCA assessed as early apoptotic cells at 15 uM incubated for 48 hrs in presence of Olaparib by Annexin V-FITC/PI staining based flow cytometry analysis (reference value: 1.60%). Type of test: functional.
Test [21] concerns MDA-MB-231. Briefly: Induction of apoptosis in human MDA-MB-231 cells harboring wild-type BRCA assessed as viable cells at 15 uM incubated for 48 hrs in presence of Olaparib by Annexin V-FITC/PI staining based flow cytometry analysis (reference value: 94.3%). The test is classed as functional. As to conditions: read-out: Activity.
In test [22] the test system is MDA-MB-231. As to the kind of experiment: Induction of apoptosis in human MDA-MB-231 cells harboring wild-type BRCA assessed as late apoptotic cells at 15 uM incubated for 48 hrs in presence of Olaparib by Annexin V-FITC/PI staining based flow cytometry analysis (reference value: 2.38%). Type of test: functional.
Test [23] deals with MDA-MB-231. Briefly: Induction of apoptosis in human MDA-MB-231 cells harboring wild-type BRCA assessed as late apoptotic cells at 15 uM incubated for 48 hrs by Annexin V-FITC/PI staining based flow cytometry analysis (reference value: 2.38%). The test is classed as functional.
The test system of test [24] is MDA-MB-231. As to the kind of experiment: Induction of apoptosis in human MDA-MB-231 cells harboring wild-type BRCA assessed as early apoptotic cells at 15 uM incubated for 48 hrs by Annexin V-FITC/PI staining based flow cytometry analysis (reference value: 1.60%). Type of test: functional.
Test [25] has as its system MDA-MB-231. Briefly: Induction of apoptosis in human MDA-MB-231 cells harboring wild-type BRCA assessed as necrotic cells at 15 uM incubated for 48 hrs by Annexin V-FITC/PI staining based flow cytometry analysis (reference value: 1.68%). Type of test: functional.
Test [26] has as its system MDA-MB-231. Briefly: Induction of apoptosis in human MDA-MB-231 cells harboring wild-type BRCA assessed as viable cells at 15 uM incubated for 48 hrs by Annexin V-FITC/PI staining based flow cytometry analysis (reference value: 94.3%). Type of test: functional. As to conditions: read-out: Activity.
Test [27] has as its system MDA-MB-231. Briefly: Induction of apoptosis in human MDA-MB-231 cells harboring wild-type BRCA assessed as viable cells at 10 uM incubated for 48 hrs in presence of GNE-617 by Annexin V-FITC/PI staining based flow cytometry analysis (reference value: 94.3%). The test is classed as functional. The conditions noted are these: read-out: Activity.
In test [28] the test system is MDA-MB-231. Briefly: Induction of apoptosis in human MDA-MB-231 cells harboring wild-type BRCA assessed as necrotic cells at 10 uM incubated for 48 hrs in presence of GNE-617 by Annexin V-FITC/PI staining based flow cytometry analysis (reference value: 1.68%). Type of test: functional.
Test [29] deals with MDA-MB-231. As to the kind of experiment: Induction of apoptosis in human MDA-MB-231 cells harboring wild-type BRCA assessed as early apoptotic cells at 10 uM incubated for 48 hrs in presence of GNE-617 by Annexin V-FITC/PI staining based flow cytometry analysis (reference value: 1.60%). Type of test: functional.
Test [30] concerns MDA-MB-231. As to the kind of experiment: Induction of apoptosis in human MDA-MB-231 cells harboring wild-type BRCA assessed as late apoptotic cells at 10 uM incubated for 48 hrs in presence of GNE-617 by Annexin V-FITC/PI staining based flow cytometry analysis (reference value: 2.38%). Type of test: functional.

The source made the active and inactive calls. The calls are words filed in the database; no cut-off is given here.

For orientation: IC50 means the concentration that gives 50% inhibition. A higher IC50 goes with weaker potency in that assay. Regarding `O=C(NCCCCCCN1CCN(C(=O)c2cc(Cc3n[nH]c(=O)c4ccccc34)ccc2F)CC1)c1ccc2nccn2c1`, the outcome in the test on MDA-MB-231 [1], in the test on MDA-MB-231 [2], in the test on MDA-MB-231 [6], in the test with MDA-MB-231 [10] and with MDA-MB-231 [11] was Active. Besides, the viability at 10 µM with MDA-MB-231 [3] came to 49.3%. Moreover, the Activity in the test with MDA-MB-231 [4] was 6.09%; with MDA-MB-231 [7], “Dose-dependent-effect”; in the test with MDA-MB-231 [9], 29.8%; in the test with MDA-MB-231 [13], 1.84%; in the test on MDA-MB-231 [14], 0.41%; in the test with MDA-MB-231 [15], 44.2%. In addition, the Activity in the test on MDA-MB-231 [17] amounted to 0.031%. The 50% inhibitory concentration (IC50) came to 0.8 nM in [5], 700 nM in the test with MDA-MB-231 [8], 18 nM in test [12] and 960 nM in the test on MDA-MB-436. The viability at 5 µM in the test on MDA-MB-231 [16] was determined as 68.3%.

`O=C(NCCCCCN1CCN(C(=O)c2cc(Cc3n[nH]c(=O)c4ccccc34)ccc2F)CC1)c1ccc2nccn2c1`: the IC50 in [5] came out at 1.8 nM.

On to `O=C(NCc1ccc(S(=O)(=O)c2cc(F)cc(F)c2)cc1)c1ccc2nccn2c1`, for which the CI with MDA-MB-231 [18] is given as less than 1. Further, the Activity with MDA-MB-231 [19] was determined as 0.023%; with MDA-MB-231 [20], 34.6%; with MDA-MB-231 [22], 1.38%; with MDA-MB-231 [23] it was 0.19%; in the test with MDA-MB-231 [24], 17%; in the test with MDA-MB-231 [25] it was 0.023%. Moreover, the viability at 15 µM was 64% in the test with MDA-MB-231 [21] and 82.7% in the test on MDA-MB-231 [26]. The IC50 in the test on MDA-MB-231 [8] was 50900 nM; in the test with MDA-MB-436, 34200 nM.

As for `O=C(/C=C/c1cccnc1)NCCCCN1CCN(C(=O)c2cc(Cc3n[nH]c(=O)c4ccccc34)ccc2F)CC1`, the IC50 in test [5] was 0.9 nM; in the test on MDA-MB-231 [8], 4170 nM; in [12] it was 10 nM; with MDA-MB-436, 1440 nM.

Regarding `O=C(/C=C/c1cccnc1)NCCN1CCN(C(=O)c2cc(Cc3n[nH]c(=O)c4ccccc34)ccc2F)CC1`, the IC50 in [12] amounted to 93 nM.

As to `O=C(/C=C/c1cccnc1)NCCCCCCN1CCN(C(=O)c2cc(Cc3n[nH]c(=O)c4ccccc34)ccc2F)CC1`, the 50% inhibitory concentration (IC50) worked out at 1 nM in test [5] and 349 nM in test [12].

Take `O=C(NCCCCN1CCN(C(=O)c2cc(Cc3n[nH]c(=O)c4ccccc34)ccc2F)CC1)c1ccc2nccn2c1`: the results for the half-inhibitory concentration (IC50) in test [5] and in test [12] were 1 nM and 72 nM, respectively.

`O=C(/C=C/c1cccnc1)NCCCN1CCN(C(=O)c2cc(Cc3n[nH]c(=O)c4ccccc34)ccc2F)CC1`: the concentration for half-maximal inhibition (IC50) is 0.6 nM in test [5] and 68 nM in test [12].

Regarding `O=C(c1cc(Cc2n[nH]c(=O)c3ccccc23)ccc1F)N1CCN(C(=O)C2CC2)CC1` [OLAPARIB], the viability at 10 µM worked out at 64% in the test with MDA-MB-231 [27] and 87.5% in the test with MDA-MB-231 [3]. Also, the Activity was 0.041% in the test with MDA-MB-231 [4]; 0.023% with MDA-MB-231 [28]; 34.6% in the test with MDA-MB-231 [29]; 1.38% in the test with MDA-MB-231 [30]; 0.006% with MDA-MB-231 [14]; 12.4% with MDA-MB-231 [15]. The IC50 is 29800 nM with MDA-MB-231 [8] and 1180 nM in the test with MDA-MB-436.

Consider `O=C(/C=C/c1cccnc1)NCCCCCN1CCN(C(=O)c2cc(Cc3n[nH]c(=O)c4ccccc34)ccc2F)CC1`, for which the IC50 came out at 1.6 nM in test [5], 2540 nM with MDA-MB-231 [8], 14 nM in test [12] and 1120 nM in the test on MDA-MB-436.
